According to US20240368135A1 (VERTEX PHARMACEUTICALS INCORPORATED, priority 2021, published 2024):

Target: human NaV 1.8 (Homo sapiens, UniProt Q9Y5Y9)
Assay: E-VIPR assay detecting and measuring NaV inhibition properties
Format: cell-based
Details: HEK cells expressing truncated human NaV 1.8; no human serum; read-out: IC50 in the E-VIPR Assay
Outline: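 Membrane potential was followed by coumarin/oxonol FRET during electrical field stimulation of matrigel-seeded HEK cells carrying truncated human NaV1.8 plus KIR2.1. Dosing used 11 points, 3-fold steps, top 300 nM final, 0.625% DMSO, with or without 25% human serum.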

Sequence of human NaV 1.8 (Q9Y5Y9 126-399 limits assumed): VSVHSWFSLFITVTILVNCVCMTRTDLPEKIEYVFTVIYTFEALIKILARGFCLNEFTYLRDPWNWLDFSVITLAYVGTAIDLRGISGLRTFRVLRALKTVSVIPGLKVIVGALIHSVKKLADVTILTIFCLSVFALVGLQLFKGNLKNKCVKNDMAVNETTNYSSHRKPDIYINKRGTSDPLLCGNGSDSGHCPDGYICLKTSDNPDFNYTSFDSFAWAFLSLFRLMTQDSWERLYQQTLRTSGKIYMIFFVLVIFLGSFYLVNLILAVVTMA
Sequence of human NaV 1.8 (Q9Y5Y9 660-890 limits assumed): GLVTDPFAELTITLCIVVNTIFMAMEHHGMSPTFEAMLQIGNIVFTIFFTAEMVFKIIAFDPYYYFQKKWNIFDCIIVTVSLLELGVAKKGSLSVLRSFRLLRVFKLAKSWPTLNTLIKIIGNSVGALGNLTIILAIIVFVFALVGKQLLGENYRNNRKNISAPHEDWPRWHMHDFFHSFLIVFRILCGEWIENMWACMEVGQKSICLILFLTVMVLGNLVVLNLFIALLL
Sequence of human NaV 1.8 (Q9Y5Y9 1148-1722 limits assumed): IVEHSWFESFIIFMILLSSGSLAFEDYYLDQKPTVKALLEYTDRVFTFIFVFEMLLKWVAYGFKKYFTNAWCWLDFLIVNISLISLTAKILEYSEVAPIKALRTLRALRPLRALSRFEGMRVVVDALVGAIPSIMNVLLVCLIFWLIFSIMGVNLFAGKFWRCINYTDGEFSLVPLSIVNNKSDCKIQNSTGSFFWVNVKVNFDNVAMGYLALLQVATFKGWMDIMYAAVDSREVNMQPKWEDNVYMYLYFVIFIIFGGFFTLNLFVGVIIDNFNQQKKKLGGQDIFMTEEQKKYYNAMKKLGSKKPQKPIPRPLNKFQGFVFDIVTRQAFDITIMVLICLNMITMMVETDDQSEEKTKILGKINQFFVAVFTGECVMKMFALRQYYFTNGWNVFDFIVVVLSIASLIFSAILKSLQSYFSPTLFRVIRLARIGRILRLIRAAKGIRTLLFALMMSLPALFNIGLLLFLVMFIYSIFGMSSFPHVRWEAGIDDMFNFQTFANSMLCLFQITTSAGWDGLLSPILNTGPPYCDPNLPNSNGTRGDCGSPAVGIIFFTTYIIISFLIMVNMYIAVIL

SMILES	IC50
COC[C@@H](O)Cc1cc(NC(=O)[C@@H]2O[C@@](C)(C(F)(F)F)[C@@H](C)[C@H]2c2ccc(F)c(F)c2OCCN2CCOCC2)ccn1 [Compound 596, (2R,3S,4S,5R)-3-(3,4-difluoro-2-(2-morpholinoethoxy)phenyl)-N-(2-((S)-2-hydroxy-3-methoxypropyl)pyridin-4-yl)-4,5-dimethyl-5-(trifluoromethyl)tetrahydrofuran-2-carboxamide]	10 to 100 nM
Cc1nn(C(F)F)cc1NC(=O)[C@@H]1O[C@@](C)(C(F)(F)F)[C@@H](C)[C@H]1c1ccc(F)c(F)c1OCCN1CC2(COC2)C1 [Compound 598, (2R,3S,4S,5R)-3-(2-(2-(2-oxa-6-azaspiro[3.3]heptan-6-yl)ethoxy)-3,4-difluorophenyl)-N-(1-(difluoromethyl)-3-methyl-1H-pyrazol-4-yl)-4,5-dimethyl-5-(trifluoromethyl)tetrahydrofuran-2-carboxamide]	10 to 100 nM
Cc1nn(C(F)F)cc1NC(=O)[C@@H]1O[C@@](C)(C(F)(F)F)[C@@H](C)[C@H]1c1ccc(F)c(F)c1OCc1cn[nH]c1 [Compound 599, (2R,3S,4S,5R)-N-[1-(difluoromethyl)-3-methyl-pyrazol-4-yl]-3-[3,4-difluoro-2-(1H-pyrazol-4-ylmethoxy)phenyl]-4,5-dimethyl-5-(trifluoromethyl)tetrahydrofuran-2-carboxamide]	< 10 nM
Cc1nn(C(F)F)cc1NC(=O)[C@@H]1O[C@@](C)(C(F)(F)F)[C@@H](C)[C@H]1c1ccc(F)c(F)c1OC1CC(O)C1 (stereo partly drawn) [Compound 600, (2R,3S,4S,5R)-3-[3,4-difluoro-2-(3-hydroxycyclobutoxy)phenyl]-N-[1-(difluoromethyl)-3-methyl-pyrazol-4-yl]-4,5-dimethyl-5-(trifluoromethyl)tetrahydrofuran-2-carboxamide]	10 to 100 nM
C=C(CO)COc1c([C@H]2[C@H](C(=O)Nc3cn(C(F)F)nc3C)O[C@@](C)(C(F)(F)F)[C@H]2C)ccc(F)c1F [Compound 601, (2R,3S,4S,5R)-3-[3,4-difluoro-2-[2-(hydroxymethyl)allyloxy]phenyl]-N-[1-(difluoromethyl)-3-methyl-pyrazol-4-yl]-4,5-dimethyl-5-(trifluoromethyl)tetrahydrofuran-2-carboxamide]	< 10 nM
COC(=O)COc1c([C@H]2[C@H](C(=O)Nc3cn(C(F)F)nc3C)O[C@@](C)(C(F)(F)F)[C@H]2C)ccc(F)c1F [Compound 602, methyl 2-[6-[(2R,3S,4S,5R)-2-[[1-(difluoromethyl)-3-methyl-pyrazol-4-yl]carbamoyl]-4,5-dimethyl-5-(trifluoromethyl)tetrahydrofuran-3-yl]-2,3-difluoro-phenoxy]acetate]	< 10 nM
Cc1nn(C(F)F)cc1NC(=O)[C@@H]1O[C@@](C)(C(F)(F)F)[C@@H](C)[C@H]1c1ccc(F)c(F)c1OCC(=O)O [Compound 603, 2-(6-((2R,3S,4S,5R)-2-((1-(difluoromethyl)-3-methyl-1H-pyrazol-4-yl)carbamoyl)-4,5-dimethyl-5-(trifluoromethyl)tetrahydrofuran-3-yl)-2,3-difluorophenoxy)acetic acid]	≥ 1000 nM
Cc1nn(C(F)F)cc1NC(=O)[C@@H]1O[C@@](C)(C(F)(F)F)[C@@H](C)[C@H]1c1ccc(F)c(F)c1OCC(=O)N(C)O [Compound 604, (2R,3S,4S,5R)-3-(3,4-difluoro-2-(2-(hydroxy(methyl)amino)-2-oxoethoxy)phenyl)-N-(1-(difluoromethyl)-3-methyl-1H-pyrazol-4-yl)-4,5-dimethyl-5-(trifluoromethyl)tetrahydrofuran-2-carboxamide]	100 to 1000 nM
Cc1nn(C(F)F)cc1NC(=O)[C@@H]1O[C@@](C)(C(F)(F)F)[C@@H](C)[C@H]1c1ccc(F)c(F)c1OCC(N)=O [Compound 605, (2R,3S,4S,5R)-3-(2-(2-amino-2-oxoethoxy)-3,4-difluorophenyl)-N-(1-(difluoromethyl)-3-methyl-1H-pyrazol-4-yl)-4,5-dimethyl-5-(trifluoromethyl)tetrahydrofuran-2-carboxamide]	10 to 100 nM
CNC(=O)COc1c([C@H]2[C@H](C(=O)Nc3cn(C(F)F)nc3C)O[C@@](C)(C(F)(F)F)[C@H]2C)ccc(F)c1F [Compound 607, (2R,3S,4S,5R)-3-(3,4-difluoro-2-(2-(methylamino)-2-oxoethoxy)phenyl)-N-(1-(difluoromethyl)-3-methyl-1H-pyrazol-4-yl)-4,5-dimethyl-5-(trifluoromethyl)tetrahydrofuran-2-carboxamide]	10 to 100 nM
C[C@H](CO)COc1c([C@H]2[C@H](C(=O)Nc3ccc(C(N)=O)nc3)O[C@@](C)(C(F)(F)F)[C@H]2C)ccc(F)c1F [Compound 614, 5-((2R,3S,4S,5R)-3-(3,4-difluoro-2-((R)-3-hydroxy-2-methylpropoxy)phenyl)-4,5-dimethyl-5-(trifluoromethyl)tetrahydrofuran-2-carboxamido)picolinamide]	10 to 100 nM
C[C@H]1[C@@H](c2ccc(F)c(F)c2OCCO)[C@H](C(=O)Nc2ccc(C(N)=O)nc2)O[C@@]1(C)C(F)(F)F [Compound 615, 5-((2R,3S,4S,5R)-3-(3,4-difluoro-2-(2-hydroxyethoxy)phenyl)-4,5-dimethyl-5-(trifluoromethyl)tetrahydrofuran-2-carboxamido)picolinamide]	10 to 100 nM
C[C@@H](CO)COc1c([C@H]2[C@H](C(=O)Nc3ccc(C(N)=O)nc3)O[C@@](C)(C(F)(F)F)[C@H]2C)ccc(F)c1F [Compound 616, 5-((2R,3S,4S,5R)-3-(3,4-difluoro-2-((S)-3-hydroxy-2-methylpropoxy)phenyl)-4,5-dimethyl-5-(trifluoromethyl)tetrahydrofuran-2-carboxamido)picolinamide]	100 to 1000 nM
C[C@H]1[C@@H](c2ccc(F)c(F)c2OCCN2CC3(COC3)C2)[C@H](C(=O)Nc2ccnc(CO)c2)O[C@@]1(C)C(F)(F)F [Compound 618, (2R,3S,4S,5R)-3-(2-(2-(2-oxa-6-azaspiro[3.3]heptan-6-yl)ethoxy)-3,4-difluorophenyl)-N-(2-(hydroxymethyl)pyridin-4-yl)-4,5-dimethyl-5-(trifluoromethyl)tetrahydrofuran-2-carboxamide]	10 to 100 nM
Cc1nocc1NC(=O)[C@@H]1O[C@@](C)(C(F)(F)F)[C@@H](C)[C@H]1c1ccc(F)c(F)c1OCCN1CC2(COC2)C1 [Compound 619, (2R,3S,4S,5R)-3-(2-(2-(2-oxa-6-azaspiro[3.3]heptan-6-yl)ethoxy)-3,4-difluorophenyl)-4,5-dimethyl-N-(3-methylisoxazol-4-yl)-5-(trifluoromethyl)tetrahydrofuran-2-carboxamide]	10 to 100 nM

More lines, now with the values ahead:

IC50	SMILES
10 to 100 nM	Cc1nocc1NC(=O)[C@@H]1O[C@@](C)(C(F)(F)F)[C@@H](C)[C@H]1c1ccc(F)c(F)c1OCCN1CCOCC1 [Compound 586, (2R,3S,4S,5R)-3-(3,4-difluoro-2-(2-morpholinoethoxy)phenyl)-4,5-dimethyl-N-(3-methylisoxazol-4-yl)-5-(trifluoromethyl)tetrahydrofuran-2-carboxamide]
10 to 100 nM	C[C@H]1[C@@H](c2ccc(F)c(F)c2OCCN2CCOCC2)[C@H](C(=O)Nc2cccnc2)O[C@@]1(C)C(F)(F)F [Compound 587, (2R,3S,4S,5R)-3-(3,4-difluoro-2-(2-morpholinoethoxy)phenyl)-4,5-dimethyl-N-(pyridin-3-yl)-5-(trifluoromethyl)tetrahydrofuran-2-carboxamide]
10 to 100 nM	C[C@H]1[C@@H](c2ccc(F)c(F)c2OCCN2CCOCC2)[C@H](C(=O)Nc2ccn(C)c(=O)c2)O[C@@]1(C)C(F)(F)F [Compound 588, (2R,3S,4S,5R)-3-(3,4-difluoro-2-(2-morpholinoethoxy)phenyl)-4,5-dimethyl-N-(1-methyl-2-oxo-1,2-dihydropyridin-4-yl)-5-(trifluoromethyl)tetrahydrofuran-2-carboxamide]
10 to 100 nM	Cc1nn(C(F)F)cc1NC(=O)[C@@H]1O[C@@](C)(C(F)(F)F)[C@@H](C)[C@H]1c1ccc(F)c(F)c1OCCN1CCOCC1 [Compound 591, (2R,3S,4S,5R)-3-(3,4-difluoro-2-(2-morpholinoethoxy)phenyl)-N-(1-(difluoromethyl)-3-methyl-1H-pyrazol-4-yl)-4,5-dimethyl-5-(trifluoromethyl)tetrahydrofuran-2-carboxamide]
10 to 100 nM	C[C@H]1[C@@H](c2ccc(F)c(F)c2OCCN2CCOCC2)[C@H](C(=O)Nc2cc(C(N)=O)nn2C)O[C@@]1(C)C(F)(F)F [Compound 592, 5-((2R,3S,4S,5R)-3-(3,4-difluoro-2-(2-morpholinoethoxy)phenyl)-4,5-dimethyl-5-(trifluoromethyl)tetrahydrofuran-2-carboxamido)-1-methyl-1H-pyrazole-3-carboxamide]
10 to 100 nM	Cc1nn(C(N)=O)cc1NC(=O)[C@@H]1O[C@@](C)(C(F)(F)F)[C@@H](C)[C@H]1c1ccc(F)c(F)c1OCCN1CCOCC1 [Compound 593, 4-((2R,3S,4S,5R)-3-(3,4-difluoro-2-(2-morpholinoethoxy)phenyl)-4,5-dimethyl-5-(trifluoromethyl)tetrahydrofuran-2-carboxamido)-3-methyl-1H-pyrazole-1-carboxamide]
100 to 1000 nM	Cc1nn(C2COC2)cc1NC(=O)[C@@H]1O[C@@](C)(C(F)(F)F)[C@@H](C)[C@H]1c1ccc(F)c(F)c1OCCN1CCOCC1 [Compound 594, (2R,3S,4S,5R)-3-(3,4-difluoro-2-(2-morpholinoethoxy)phenyl)-4,5-dimethyl-N-(3-methyl-1-(oxetan-3-yl)-1H-pyrazol-4-yl)-5-(trifluoromethyl)tetrahydrofuran-2-carboxamide]
10 to 100 nM	C[C@H]1[C@@H](c2ccc(F)c(F)c2OCCN2C[C@H]3COC[C@H]3C2)[C@H](C(=O)Nc2cc(C(N)=O)nn2C)O[C@@]1(C)C(F)(F)F [Compound 597, 5-[[(2R,3S,4S,5R)-3-[2-[2-[(3aS,6aR)-1,3,3a,4,6,6a-hexahydrofuro[3,4-c]pyrrol-5-yl]ethoxy]-3,4-difluoro-phenyl]-4,5-dimethyl-5-(trifluoromethyl)tetrahydrofuran-2-carbonyl]amino]-1-methyl-pyrazole-3-carboxamide]
